# Assays:
# healthy adults = assay: Phase 1 first-in-human study: safety and tolerability (adverse events), SAD and MAD cohorts; settings: in vivo
# Description: Study Overview and Ethics. The study used a randomized, placebo-controlled, single-ascending dose (SAD) and multiple-ascending dose (MAD) design (FIG. 2). […] Dose escalation was to be stopped when this range was achieved, or when a non-tolerated dose was identified, if earlier.
# Participants and Treatments. To be eligible for this study, participants were to be healthy adults aged 18 to 55 years, with body mass index of 18.0 to 32.0 kg/m^2, normal electrocardiogram (ECG) and clinical laboratory values, or only minor abnormalities that were deemed not clinically significant. Participants also had to have normal cardiac structure and function, with LVEF≥60% for the first 4 SAD cohorts, ≥65% for subsequent SAD cohorts, all MAD cohorts, and the food-effect cohort, and >55% for the CYP2D6-PM cohort. […]
# Safety and tolerability. Safety was assessed by the incidence of adverse events (AEs) and by incidence of reduced LVEF. […]
# For safety monitoring, participants in all cohorts had periodic echocardiograms, which were assessed by a cardiologist. […] In addition, participants in all cohorts were monitored with continuous 12-lead ECG recording using Holter monitors. […] In the SAD, MAD, and CYP2D6-PM cohorts, cardiodynamic ECGs (triplicate 10-second, 12-lead ECG recordings) were obtained prior to the corresponding PK blood and ECG intervals quantitated by qualified readers.
# [1] = tested on: patients with symptomatic obstructive HCM (oHCM); assay: Phase 2 trial in oHCM: safety; assay type: in vivo, human
# Description: Patients up-titrated to Dose 2 if either of the following conditions were met on echocardiography: (1) resting LVOT-G≥30 mmHg and the biplane LVEF≥50%; or (2) resting LVOT-G<30 mmHg, post-Valsalva LVOT-G≥50 mmHg, and the biplane LVEF≥50%. Otherwise, the patient remains on Dose 1. If LVEF is <50% at Week 2, the patient was down-titrated to placebo.
# Patients were escalated to the next higher dose if either of the following conditions were met on echocardiography: (1) resting LVOT-G≥30 mmHg and the biplane LVEF≥50%; or (2) resting LVOT-G<30 mmHg, post-Valsalva LVOT-G≥50 mmHg, and the biplane LVEF≥50%. Otherwise, the patient remained on the same dose. If LVEF was <50% at Week 4, the patient was returned to a prior dose level or to placebo if the patient was on Dose 1.
compound,measurement,setting,value
"CCc1nc(-c2ccc3c(c2)CC[C@H]3NC(=O)c2cnn(C)c2)no1 [aficamten, (R)—N-(5-(5-ethyl-1,2,4-oxadiazol-3-yl)-2,3-dihydro-1H-inden-1-yl)-1-methyl-1H-pyrazole-4-carboxamide]",Time to resolution of AEs of decreased ejection fraction <45%,healthy adults; human,2.5 to 4.6 h
same,Post-dose LVEF of 1 participant with LVEF <50%,healthy adults,46.2%
same,Patients with LVEF <50%,[1]; Cohort 1,No patients
same,Patients with AEs related to study drug (per investigator),"[1]; Cohort 1, 21 randomized",3 (14.3) N (%)
same,Patients with TEAEs leading to drug interruption or termination,"[1]; Cohort 1, 21 randomized",0 N (%)
same,Patients with TESAEs,"[1]; Cohort 1, 21 randomized",2 (9.5) N (%)
same,Patients with at least one TEAE,"[1]; Cohort 1, 21 randomized",17 (81) N (%)
same,Patients with fatal TEAEs,"[1]; Cohort 1, 21 randomized",0 N (%)
same,TEAE of LVEF <50% (Core Lab),"[1]; Cohort 1, 21 randomized",0 N (%)
same,Patients with AEs related to study drug (per investigator),"[1]; Cohort 2, 20 randomized",1 (5.0) N (%)
same,Patients with TEAEs leading to drug interruption or termination,"[1]; Cohort 2, 20 randomized",0 N (%)
same,Patients with TESAEs,"[1]; Cohort 2, 20 randomized",0 N (%)
same,Patients with at least one TEAE,"[1]; Cohort 2, 20 randomized",15 (75) N (%)
same,Patients with fatal TEAEs,"[1]; Cohort 2, 20 randomized",0 N (%)
same,TEAE of LVEF <50% (Core Lab),"[1]; Cohort 2, 20 randomized",2 (10) N (%)
same,Patients with transient LVEF reduction to <50% requiring down titration,"[1]; Cohort 2, on 20 mg, remaining above 40%",one patient
same,Interruptions or discontinuations of treatment,[1]; Cohorts 1 and 2,No interruptions or discontinuations
same,Treatment-related serious adverse events,"[1]; Cohorts 1 and 2, 10 weeks, listed as CK-274",no treatment related serious adverse events
same,Patients with AEs related to study drug (per investigator),"[1]; Total, 54 patients",6 (11.1) N (%)
same,Patients with TEAEs leading to drug interruption or termination,"[1]; Total, 54 patients",0 N (%)
same,Patients with TESAEs,"[1]; Total, 54 patients",2 (3.7) N (%)
same,Patients with at least one TEAE,"[1]; Total, 54 patients",41 (75.9) N (%)
same,Patients with fatal TEAEs,"[1]; Total, 54 patients",0 N (%)
same,TEAE of LVEF <50% (Core Lab),"[1]; Total, 54 patients",2 (3.7) N (%)
same,Time for LVEF to return towards baseline,[1]; both cohorts,within two weeks after the end of treatment

# From patent US20250177357A1, “METHODS FOR TREATING HYPERTROPHIC CARDIOMYOPATHY” (priority 2021, published 2025)
